Assay results: US20240299476A1, “USE OF A BIRNAVIRUS ALONE OR IN COMBINATION THERAPY FOR THE TREATMENT OF CANCER” (Probiogen AG, priority 2020, published 2024)

How the values were obtained:
[1] = test system: stage IV hilar cholangiocarcinoma; assay: Compassionate use case report: cholangiocarcinoma; type: in vivo, human; conditions: same patient before IBDV; agents added to ongoing low-dose chemotherapy; CA19-9 at diagnosis 2,729
Source text: A person approached the clinic for treatment of resistant stage IV hilar cholangiocarcinoma, CK7 positive, CK20 negative with confirmed peritoneal metastatic disease. During 2016 patient developed unexplained weight loss of approximately 10 kg, night pruritus. […] In January 2017 jaundice developed. Blood test on 19 Mar. […] Considering tumor location and potential involvement of both right and left lobes, no surgical procedure was considered, except liver transplantation. On 10 Apr. 2017 a biliary stent was introduced for drainage of rising levels of bilirubin >14 mg/dL. On 13 Apr. 2017 abdominal exploratory laparoscopy reviled peritoneal metastases and conventional chemotherapy was recommended but the patient preferred synergic combination of low doses of gemcitabine, leucovorin, fluorouracil, irinotecan and oxaliplatin administered over 48 h period every two weeks. After discovery of 2 mutations on BRCA1 (Exon 10/V9201) and BRCA2 (Exon 11/N2113S) it was decided to add PARP inhibitor and on 24 Jul. 2017 rucaparib was added and CA19-9 dropped to 287 IU/mL. CA19-9 increased following administration of nivolumab but stabilized at 250 IU/mL by adding abraxane, gemcitabine and oxaliplatin. Following addition of Erbitux and later on combinations of low-dose (1.0 mg/kg) ipilimumab and nivolumab (2 mg/kg) CA19-9 levels dropped from 369 IU/mL to normal levels. […]

AGE1.CR.PIX = assay: IBDV replication with or without 5 mM 2-aminopurin, TCID50 titration, AGE1.CR.PIX; type: cell-based, duck; conditions: AGE1.CR.PIX (normal RAS), IBDV MOI 0.05, 5 mM 2-AP versus none, 96 h
Procedure: (§1) FIG. 2: Enhancement of IBDV replication following treatment with 2-aminopurin in cell lines with normal RAS function (HEK293, AGE1.CR.PIX) but not in a RAS defective cell line (A549). Cells were infected with IBDV at MOI 0.05 either in the presence of 5 mM 2-aminopurin (2-AP) or without, cells together with supernatant were lysed by 3× freeze/thaw steps, cell debris was removed by centrifugation and the virus titer was quantified by TCID50.
(§2) Because susceptibility varies among cell lines, the positive impact of a RAS defect on IBDV replication has to be shown comparing cells of the same type with a specific propensity to replicate IBDV with normal and defect RAS function. Such RAS defect can be simulated in a cell line with normal RAS when cells are treated with 2-aminopurin. The drug prevents phosphorylation of protein kinase PKR that is prevented in cells with a RAS defect. The effect of 2-aminopurin on IBDV replication is studied in cell lines with (A549) and without a RAS mutation (AGE1.CR.PIX, HEK293).
(§3) HEK 293, A549, and AGE1.CR.pIX cells were infected with IBDV at MOI 0.05 either in the presence of 5 mM 2-aminopurin (2-AP) or without. […] Subsequently, the virus titer was quantified by TCID50 titration in different dilutions using adherent AGE1.CR.PIX cells. Based on the cytopathic effect (CPE) the TCID50 titer was evaluated 72 hours post infection (FIG. 2).

HEK293 = assay: IBDV replication with or without 5 mM 2-aminopurin, TCID50 titration, HEK293; type: cell-based; conditions: HEK293 (normal RAS), IBDV MOI 0.05, 5 mM 2-AP versus none, 96 h
Procedure: as §1, §2, §3

A549 = assay: IBDV replication with or without 5 mM 2-aminopurin, TCID50 titration, A549 (RAS mutant); type: cell-based, human; conditions: IBDV MOI 0.05, 5 mM 2-AP versus none, 96 h
Procedure: as §1, §2, §3

Row | Compound | Tumor marker CA19-9 level after adding the agent (earlier therapy, patient history) [1] | Enhancement of IBDV replication (virus titer, TCID50) (AGE1.CR.PIX) | Enhancement of IBDV replication (virus titer, TCID50) (HEK293) | Effect on IBDV replication (virus titer, TCID50) (A549)
1 | nivolumab | increased |  |  | 
2 | Nc1ncc2[nH]cnc2n1 [2-aminopurine] |  | approximately 10 fold | approximately 10 fold | no benefit
3 | CNCc1ccc(-c2[nH]c3cc(F)cc4c3c2CCNC4=O)cc1 [rucaparib] | 287 IU/mL |  |  | 
